Measured values taken from patent publication US10336792B2, “Antimicrobial peptide dendrimers” (priority 2014, dated 2019).
In brackets after ≈: the same amount, converted by molar mass. Positions of bridges follow the written chain, without caps; N, C: chain ends. Non-standard residues stand in square brackets, D forms with d. Residues, ends and D or L forms follow the SMILES beside them. Groups on a side chain read outwards from the residue. Chains are numbered I, II in the order given. *: point of attachment. Lauroyl = CCCCCCCCCCCC(=O)*; Decanoyl = CCCCCCCCCC(=O)*; dDap = NC[C@@H](N)C(=O)O; Dab = NCC[C@H](N)C(=O)O; Dap = NC[C@H](N)C(=O)O; Hexanoyl = CCCCCC(=O)*

Tests used:
Format in all cases: cell-based
[1] = tested on: Bacillus subtilis (strain BR151); settings: strain BR151
Method in brief: (§1)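 Broth microdilution MIC in LB; overnight cultures diluted to OD600 0.001 and mixed 1:1 with ⅔-serially diluted samples (stock 1 mg mL^−1 in H2O), 37° C for 18-24 h. MTT (0.1%) added; MIC read by eye as lowest concentration inhibiting visible growth (yellow).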

[2] = tested on: Escherichia coli (strain DH5α); settings: DH5α
Method in brief: as §1

[3] = tested on: Pseudomonas aeruginosa (strain PA01); assay: microbe, parasite or virus in culture; settings: strain
Method in brief: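 P. aeruginosa PAO1 grown overnight in LB, diluted to OD600 0.001 and mixed with ⅔-step peptide dilutions, then incubated at 37 °C for 18–24 h. After MTT staining, the lowest concentration with no visible growth was read by eye as the MIC.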

MIC B. subtilis BR151 [1] [µg/mL]	MIC E. coli DH5α [2] [µg/mL]	MIC P. aeruginosa PAO1 [3] [µg/mL]	SMILES
4 (≈ 0.826 µM)	1 (≈ 0.206 µM)	1 (≈ 0.206 µM)	CCCCCCCCCCCC(=O)NCCCC[C@H](NC(=O)[C@H](CC(C)C)NC(=O)[C@H](CCCCN)NC(=O)[C@H](CCCCNC(=O)[C@H](CC(C)C)NC(=O)[C@H](CCCCN)NC(=O)[C@H](CCCCNC(=O)[C@H](CC(C)C)NC(=O)[C@H](CCCCN)NC(=O)[C@H](CCCCNC(=O)[C@H](CC(C)C)NC(=O)[C@@H](N)CCCCN)NC(=O)[C@H](CC(C)C)NC(=O)[C@@H](N)CCCCN)NC(=O)[C@H](CC(C)C)NC(=O)[C@H](CCCCN)NC(=O)[C@H](CCCCNC(=O)[C@H](CC(C)C)NC(=O)[C@@H](N)CCCCN)NC(=O)[C@H](CC(C)C)NC(=O)[C@@H](N)CCCCN)NC(=O)[C@H](CC(C)C)NC(=O)[C@H](CCCCN)NC(=O)[C@H](CCCCNC(=O)[C@H](CC(C)C)NC(=O)[C@H](CCCCN)NC(=O)[C@H](CCCCNC(=O)[C@H](CC(C)C)NC(=O)[C@@H](N)CCCCN)NC(=O)[C@H](CC(C)C)NC(=O)[C@@H](N)CCCCN)NC(=O)[C@H](CC(C)C)NC(=O)[C@H](CCCCN)NC(=O)[C@H](CCCCNC(=O)[C@H](CC(C)C)NC(=O)[C@@H](N)CCCCN)NC(=O)[C@H](CC(C)C)NC(=O)[C@@H](N)CCCCN)C(N)=O [MSt-267, (KL)8(KKL)4(KKL)2(KKLKC12)] (I: H-KLK([Leu-Lys])KLKKLKKLK(Lauroyl)-NH2 / II: H-KLK([Leu-Lys])KLKKL / III: H-KLK([Leu-Lys])KL / IV: H-KLK([Leu-Lys])KL; amide I:6-IV:C, I:9-II:C, II:6-III:C)
4 (≈ 0.83 µM)	1 (≈ 0.208 µM)	1 (≈ 0.208 µM)	CCCCCCCCCC(=O)NCCCC[C@H](NC(=O)[C@H](CC(C)C)NC(=O)[C@H](CCCCN)NC(=O)[C@H](CCCCNC(=O)[C@H](CC(C)C)NC(=O)[C@H](CCCCN)NC(=O)[C@H](CCCCNC(=O)[C@H](CC(C)C)NC(=O)[C@H](CCCCN)NC(=O)[C@H](CCCCNC(=O)[C@H](CC(C)C)NC(=O)[C@@H](N)CCCCN)NC(=O)[C@H](CC(C)C)NC(=O)[C@@H](N)CCCCN)NC(=O)[C@H](CC(C)C)NC(=O)[C@H](CCCCN)NC(=O)[C@H](CCCCNC(=O)[C@H](CC(C)C)NC(=O)[C@@H](N)CCCCN)NC(=O)[C@H](CC(C)C)NC(=O)[C@@H](N)CCCCN)NC(=O)[C@H](CC(C)C)NC(=O)[C@H](CCCCN)NC(=O)[C@H](CCCCNC(=O)[C@H](CC(C)C)NC(=O)[C@H](CCCCN)NC(=O)[C@H](CCCCNC(=O)[C@H](CC(C)C)NC(=O)[C@@H](N)CCCCN)NC(=O)[C@H](CC(C)C)NC(=O)[C@@H](N)CCCCN)NC(=O)[C@H](CC(C)C)NC(=O)[C@H](CCCCN)NC(=O)[C@H](CCCCNC(=O)[C@H](CC(C)C)NC(=O)[C@@H](N)CCCCN)NC(=O)[C@H](CC(C)C)NC(=O)[C@@H](N)CCCCN)C(N)=O [MSt-266, (KL)8(KKL)4(KKL)2(KKLKC10)] (I: H-KLK([Leu-Lys])KLKKLKKLK(Decanoyl)-NH2 / II: H-KLK([Leu-Lys])KLKKL / III: H-KLK([Leu-Lys])KL / IV: H-KLK([Leu-Lys])KL; amide I:6-IV:C, I:9-II:C, II:6-III:C)

The remaining lines, values behind:

SMILES	MIC B. subtilis BR151 [1] [µg/mL]	MIC E. coli DH5α [2] [µg/mL]	MIC P. aeruginosa PAO1 [3] [µg/mL]
CC(C)C[C@H](NC(=O)[C@H](CCN)NC(=O)[C@H](CCCCNC(=O)[C@H](CC(C)C)NC(=O)[C@@H](N)CCN)NC(=O)[C@H](CC(C)C)NC(=O)[C@@H](N)CCN)C(=O)NCCCC[C@H](NC(=O)[C@H](CC(C)C)NC(=O)[C@H](CCN)NC(=O)[C@H](CCCCNC(=O)[C@H](CC(C)C)NC(=O)[C@@H](N)CCN)NC(=O)[C@H](CC(C)C)NC(=O)[C@@H](N)CCN)C(=O)N[C@@H](CCN)C(=O)N[C@@H](Cc1c[nH]c2ccccc12)C(=O)NCCCC[C@H](NC(=O)[C@H](Cc1c[nH]c2ccccc12)NC(=O)[C@H](CCN)NC(=O)[C@H](CCCCNC(=O)[C@H](CC(C)C)NC(=O)[C@H](CCN)NC(=O)[C@H](CCCCNC(=O)[C@H](CC(C)C)NC(=O)[C@@H](N)CCN)NC(=O)[C@H](CC(C)C)NC(=O)[C@@H](N)CCN)NC(=O)[C@H](CC(C)C)NC(=O)[C@H](CCN)NC(=O)[C@H](CCCCNC(=O)[C@H](CC(C)C)NC(=O)[C@@H](N)CCN)NC(=O)[C@H](CC(C)C)NC(=O)[C@@H](N)CCN)C(=O)N[C@@H](CCN)C(=O)N[C@@H](Cc1c[nH]c2ccccc12)C(N)=O [MSt-203, (DabL)8(KDabL)4(KDabW)2(KDabW)] (I: H-[Dab]LK([Leu-Dab])[Dab]LK[Dab]WK[Dab]W-NH2 / II: H-[Dab]LK([Leu-Dab])[Dab]LK[Dab]W / III: H-[Dab]LK([Leu-Dab])[Dab]L / IV: H-[Dab]LK([Leu-Dab])[Dab]L; amide I:6-IV:C, I:9-II:C, II:6-III:C; N-terminus assumed)	2 (≈ 0.462 µM)	2 (≈ 0.462 µM)	2 (≈ 0.462 µM)
CC(C)C[C@@H](NC(=O)[C@@H](CCCCN)NC(=O)[C@@H](CNC(=O)[C@@H](CC(C)C)NC(=O)[C@@H](CCCCN)NC(=O)[C@@H](CNC(=O)[C@@H](CC(C)C)NC(=O)[C@@H](CCCCN)NC(=O)[C@@H](CNC(=O)[C@@H](CC(C)C)NC(=O)[C@H](N)CCCCN)NC(=O)[C@@H](CC(C)C)NC(=O)[C@H](N)CCCCN)NC(=O)[C@@H](CC(C)C)NC(=O)[C@@H](CCCCN)NC(=O)[C@@H](CNC(=O)[C@@H](CC(C)C)NC(=O)[C@H](N)CCCCN)NC(=O)[C@@H](CC(C)C)NC(=O)[C@H](N)CCCCN)NC(=O)[C@@H](CC(C)C)NC(=O)[C@@H](CCCCN)NC(=O)[C@@H](CNC(=O)[C@@H](CC(C)C)NC(=O)[C@@H](CCCCN)NC(=O)[C@@H](CNC(=O)[C@@H](CC(C)C)NC(=O)[C@H](N)CCCCN)NC(=O)[C@@H](CC(C)C)NC(=O)[C@H](N)CCCCN)NC(=O)[C@@H](CC(C)C)NC(=O)[C@@H](CCCCN)NC(=O)[C@@H](CNC(=O)[C@@H](CC(C)C)NC(=O)[C@H](N)CCCCN)NC(=O)[C@@H](CC(C)C)NC(=O)[C@H](N)CCCCN)C(N)=O [MSt-154, (kl)8(bkl)4(bkl)2(bkl)] (I: H-[dK][dL][dDap]([dL-dK])[dK][dL][dDap][dK][dL][dDap][dK][dL]-NH2 / II: H-[dK][dL][dDap]([dL-dK])[dK][dL][dDap][dK][dL] / III: H-[dK][dL][dDap]([dL-dK])[dK][dL] / IV: H-[dK][dL][dDap]([dL-dK])[dK][dL]; amide I:6-IV:C, I:9-II:C, II:6-III:C)	2 (≈ 0.472 µM)	2 (≈ 0.472 µM)	6 (≈ 1.42 µM)
CCCCCCCCCC(=O)NCCCC[C@H](NC(=O)[C@H](CC(C)C)NC(=O)[C@H](CCCCN)NC(=O)[C@H](CCCCNC(=O)[C@H](CC(C)C)NC(=O)[C@H](CCCCN)NC(=O)[C@H](CCCCNC(=O)[C@H](CC(C)C)NC(=O)[C@@H](N)CCCCN)NC(=O)[C@H](CC(C)C)NC(=O)[C@@H](N)CCCCN)NC(=O)[C@H](CC(C)C)NC(=O)[C@H](CCCCN)NC(=O)[C@H](CCCCNC(=O)[C@H](CC(C)C)NC(=O)[C@@H](N)CCCCN)NC(=O)[C@H](CC(C)C)NC(=O)[C@@H](N)CCCCN)C(N)=O [MSt-262, (KL)4(KKL)2(KKLKC10)] (I: H-KLK([Leu-Lys])KLKKLK(Decanoyl)-NH2 / II: H-KLK([Leu-Lys])KL; amide I:6-II:C)	2 (≈ 0.843 µM)	1 (≈ 0.421 µM)	1 (≈ 0.421 µM)
CCCCCC(=O)NCCCC[C@H](NC(=O)[C@H](CC(C)C)NC(=O)[C@H](CCCCN)NC(=O)[C@H](CCCCNC(=O)[C@H](CC(C)C)NC(=O)[C@H](CCCCN)NC(=O)[C@H](CCCCNC(=O)[C@H](CC(C)C)NC(=O)[C@@H](N)CCCCN)NC(=O)[C@H](CC(C)C)NC(=O)[C@@H](N)CCCCN)NC(=O)[C@H](CC(C)C)NC(=O)[C@H](CCCCN)NC(=O)[C@H](CCCCNC(=O)[C@H](CC(C)C)NC(=O)[C@@H](N)CCCCN)NC(=O)[C@H](CC(C)C)NC(=O)[C@@H](N)CCCCN)C(N)=O [MSt-260, (KL)4(KKL)2(KKLKC6)] (I: H-KLK([Leu-Lys])KLKKLK(Hexanoyl)-NH2 / II: H-KLK([Leu-Lys])KL; amide I:6-II:C)	20 (≈ 8.63 µM)	2 (≈ 0.863 µM)	1 (≈ 0.432 µM)
CC(C)C[C@H](NC(=O)[C@H](CCCNC(=N)N)NC(=O)[C@H](CNC(=O)[C@H](CC(C)C)NC(=O)[C@H](CCCNC(=N)N)NC(=O)[C@H](CNC(=O)[C@H](CC(C)C)NC(=O)[C@@H](N)CCCNC(=N)N)NC(=O)[C@H](CC(C)C)NC(=O)[C@@H](N)CCCNC(=N)N)NC(=O)[C@H](CC(C)C)NC(=O)[C@H](CCCNC(=N)N)NC(=O)[C@H](CNC(=O)[C@H](CC(C)C)NC(=O)[C@@H](N)CCCNC(=N)N)NC(=O)[C@H](CC(C)C)NC(=O)[C@@H](N)CCCNC(=N)N)C(N)=O [MSt-139, (RL)4(BRL)2(BRL)] (I: H-RL[Dap]([Leu-Arg])RL[Dap]RL-NH2 / II: H-RL[Dap]([Leu-Arg])RL; amide I:6-II:C)	16 (≈ 7.4 µM)	17 (≈ 7.87 µM)	2 (≈ 0.926 µM)
